Experimental data: patent US20200155632A1, “COMPOSITION FOR TREATING AND PREVENTING MALE SEXUAL DISORDERS” (KOLINPHARMA S.P.A., priority 2017, published 2020)

How the values were obtained:
[1] = test system: cGMP in ECV-304 cells (human vascular endothelium cells); test: cGMP levels by ELISA in ECV-304 cells after treatment with Menix active ingredients and associations; assay type: cell-based; set-up: Average % deviation from control (cGMP levels): concentration or dose not given beside the values; conditions: for pM (cGMP), levels of expression of cGMP: 48 hours of treatment, average of n=3 biological replicates, concentrations of Table 3, control 82.1; for Average % deviation from control (cGMP levels): 48 hours, vs non-treated cells
Description: For this experiment, human vascular endothelium cells were selected (ECV-304). […] At this point, the cells were treated with trypsin and EDTA and were re-examined in appropriate culture flasks.
The cGMP levels were determined by ELISA assay, following the operating instructions given in the protocol supplied by the manufacturer (cGMP ELISA KIT—STA 505-5, Cloud Clone Corp), running the assay in the acetylated embodiment to increase the sensitivity thereof.
For the experiment, the ECV-304 cells were sowed in MW-6 and treated for 48 hours with the active ingredients of Menix and associations thereof. After the 48 hours had elapsed, the supernatants were collected and frozen at −80° C. until use. The untreated cells were used as a control.
The base levels of cGMP were determined by ELISA assay, following instructions supplied by the manufacturer (STA 505-5 Cell Biolabs Inc).
The results, expressed in terms of concentration (pM) of cGMP average±standard deviation (n=3 biological replicates), are set out in FIG. 3 and Table 4.

[2] = Solubility tests of the active ingredients of Menix; assay type: physicochemical; conditions: tested in order: culture medium, water, DMSO, organic solvents
Description: Before being subjected to the cell assays, the active ingredients of Menix have been subjected to solubility tests to define the best solubilization agent for each of the assays.

[3] = test system: diabetic rat; conditions: cited from earlier work
[4] = test system: subjects suffering from erectile dysfunction (from mild to moderate); conditions: 600 mg/daily, 26 subjects; cited from earlier work
[5] = test system: ICAM-1 and P-selectine; conditions: 2 g daily, adjuvant to sildenafil twice weekly; cited from earlier work
[6] = oral administration; cited from earlier work
[7] = test system: rats with acute arteriogenic erectile dysfunction; conditions: 2% p/v in water for three weeks; cited from earlier work
[8] = test system: subjects suffering from mild erectile dysfunction; conditions: 1.5 g daily for a month, oral, 24 subjects; cited from earlier work
[9] = test system: aged rats; conditions: dissolved 1% in water; cited from earlier work
[10] = test system: rats affected by type-1 diabetes; conditions: 400 mg/kg/daily; cited from earlier work

Compound	pM (cGMP), levels of expression of cGMP [1]	Average % deviation from control (cGMP levels) [1]	Solvent in which the active ingredient has been solubilized [2]	further results
CC(=O)O[C@H](CC(=O)[O-])C[N+](C)(C)C [N-ACETYL-L-CARNITINE, (R)-3-acetyloxy-4-trimethylammonio-butanoate]	22 pM	−73.20%	Water	
NCC(=O)[O-].NCC(=O)[O-].[Zn+2] [Zn, zinc bisglycinate]	90 pM	9.62%		
O=C(O)CCCCC1CCSS1 (racemic) [α-LIPOIC ACID, alpha-lipoic acid]	60 pM	−26.92%		Levels of endothelial NOS and neuron NOS ([3]; 65 mg/kg/daily for 15 days): increase in levels of endothelial NOS and of neuron NOS; Corpus cavernosum dysfunctions ([3]; 300 mg/kg/daily for a month): prevented and ameliorated corpus cavernosum dysfunctions; Indicators connected to erectile dysfunction (IIEF-5) [4]: significant improvement
CCC(=O)O[C@H](CC(=O)[O-])C[N+](C)(C)C [propionyl-L-carnitine]				Endogenous levels of endothelial dysfunction markers such as ICAM-1 and P-selectine [5]: significant reduction
NC(=O)NCCCC(N)C(=O)O (centres unmarked) [CITRULLINE, 2-amino-5-(carbamoylamino)pentanoic acid]	140 pM	70.52%	Culture medium	Blood levels of L-arginine compared with basic values [6]: increase in the blood levels of L-arginine; Erectile function [7]: significant improvement in erectile function; NO plasmatic levels [7]: increasing NO plasmatic levels; Erectile function on EHS and IIEF-5 [8]: increase in erectile function
NCCS(=O)(=O)O [TAURINE, 2-aminoethanesulphonic acid]	137 pM	66.87%	Culture medium	Levels of NOS and NO in the rat's penis [9]: increases levels of both NOS and NO; Secretion of androgens, testosterone [9]: increases the secretion of androgens and in particular of testosterone; Sperm quality (count, vitality, motility) [9]: improves sperm quality; Levels of cGMP and eNOS in the corpus cavernosum [10]: increased the levels of both cGMP and eNOS; Pressure inside the corpus cavernosum [10]: increase in pressure inside the corpus cavernosum
